# Measured values taken from patent US9332756B2, “Liquid formulations of carboxamide arthropodicides” (E I DU PONT DE NEMOURS AND COMPANY, priority 2006, dated 2016).
# How the values were obtained:
# Type in all cases: in vivo
# [1] = system: beet armyworm (Spodoptera exigua); assay: Test D: rainfastness for the control of beet armyworm on sprayed cotton plants; settings: Rain: Yes (about 95 mm simulated rain 2 h after spraying), four days after infestation
# Text: For evaluating rainfastness (resistance to wash-off) for the control of beet armyworm (Spodoptera exigua), the test unit consisted of a cotton plant grown in a pot containing Redi-earth® medium. Test solutions were formulated as described in TEST A. When the plants were at the 4-6 true leaf growth stage, the plants were sprayed with the formulated test solution using a belt sprayer with nozzle positioned 19 cm above the plants and providing an application volume of 234 liters/ha. After spraying of the formulated test solutions, each test unit was allowed to dry for 2 h and then exposed to about 95 mm of simulated rain in a greenhouse. Plants were then allowed to dry, and leaves were cut and placed on agar in 16-cell plastic trays. One 3-day-old, laboratory reared beet armyworm larva was placed in each cell, and the cells were covered with a plastic lid. Two 16-cell trays were used per treatment. Trays were held in a growth chamber at 75% relative humidity, 16 h with light (as daytime) and 8 h in dark (as nighttime) at 25° C. Four days after infestation, each test unit was evaluated for larvae mortality, and the mean concentrations killing 50% of the population (mean LC50) were calculated and are listed in Table 4D.
# [2] = system: silverleaf whitefly (Bemisia argentifolii Bellows & Perring); assay: Test B: control of silverleaf whitefly on sprayed cotton plants; settings: 144 h, read-out: % Mortality of Silverleaf Whitefly
# Text: For evaluating control of silverleaf whitefly (Bemisia argentifolii Bellows & Perring), the test unit consisted of a 14-21-day-old cotton plant with at least two true leaves, which was planted in Redi-earth® medium (Scotts Co.). The plants were placed in screened cages, where whitefly adults were introduced and allowed to lay eggs for approximately twenty-four hours. Only plants showing egg lay were used for testing. Before spraying the test solutions, the plants were checked again for egg hatch and crawler settlement. One leaf per plant was considered as one replication; four replications were used per treatment.
# Test solutions were formulated as described in TEST A. A control solution consisting of 25% acetone in water was also prepared. After spraying, plants were allowed to dry in a ventilated enclosure and held for six days in a growth chamber at 50% relative humidity, 16 h with light (as daytime) at 28° C. and 8 h in dark (as nighttime) at 24° C. After removing all leaves from each test plant, evaluation was made by counting dead and live nymphs present on the underside of the leaves.
# [3] = system: western flower thrips (Frankliniella occidentalis Pergande); assay: Test A: control of western flower thrips on sprayed bean plants; settings: spray 500 L/ha, 7 days, immature thrips count
# Procedure: For evaluating control of the western flower thrips (Frankliniella occidentalis Pergande) through contact and/or systemic means, each test unit consisted of a bean plant (var. Soleil) with at least two true leaves, which was planted in Redi-earth® medium (Scotts Co.). One plant was considered as one replication; four replications were used per treatment.
# Technical material (unformulated) was dissolved in acetone and mixed with water containing 500 ppm of a blend of non-ionic surfactant with organosilicone (Kinetic®, Helena Chemical Co.). Formulated materials were diluted with water only. Rates of the test solutions were reported by the amount of active ingredient in ppm. Plants were sprayed using a TeeJet flat fan spray nozzle positioned 7.5 inches (19 cm) above the tallest plant. Spray flow rate was adjusted to 5.5 mL/sec for an equivalent of 500 L/ha. After spraying of the test solutions, the test units were placed in ventilated enclosures for at least one hour to dry. Thirty adult thrips were then added to each unit, and then the plants were placed in enclosed cages to prevent insect egress. […] Percent control was calculated by dividing the number of immature thrips in a test unit by the number of immature thrips in the untreated unit, subtracting the quotient from 1, and then multiplying the difference by 100%.
# [4] = system: green peach aphid (Myzus persicae); assay: Test C: control of green peach aphid on sprayed radish plants; settings: 144 h, read-out: % Mortality of Green Peach Aphid
# Procedure: For evaluating control of green peach aphid (Myzus persicae) through contact and/or systemic means, the test unit consisted of a 3-week old radish plant pre-infested with 30-40 aphids 24 h prior to treatment with test solutions. One plant was considered as one replication, four replications were used per treatment.
# After spraying of the formulated test solutions, each test unit was allowed to dry, and the test units were held for 6 days in a growth chamber maintained at 19-21° C. and 50-70% relative humidity. Dead and live of aphids were counted in each test unit to determine percent mortality.
SMILES,Mean LC50 of Beet Armyworm [1],Mean LC50 of Beet Armyworm ([1]; listed as Compound 1),mortality at 22 ppm [2] [%],mortality at 66 ppm [2] [%],mortality at 200 ppm [2] [%],mortality at 600 ppm [2] [%],% Control of Western Flower Thrips ([3]; 100 ppm a.i.) [%],% Control of Western Flower Thrips ([3]; 200 ppm a.i.) [%],mortality at 50 ppm [4] [%],mortality at 100 ppm [4] [%],mortality at 200 ppm [4] [%],mortality at 400 ppm [4] [%],Mean LC50 of Beet Armyworm ([1]; listed as Compound 2)
"CNC(=O)c1cc(C#N)cc(C)c1NC(=O)c1cc(Br)nn1-c1ncccc1Cl [Technical Compound 1, 3-bromo-1-(3-chloro-2-pyridinyl)-N-[4-cyano-2-methyl-6-[(methylamino)carbonyl]phenyl]-1H-pyrazole-5-carboxamide]",Very little activity,very little activity,90,91,100,100,74,72,8,9,19,35,–
"CNC(=O)c1cc(Cl)cc(C)c1NC(=O)c1cc(Br)nn1-c1ncccc1Cl [Technical Compound 2, 3-bromo-N-[4-chloro-2-methyl-6-[(methylamino)carbonyl]phenyl]-1-(3-chloro-2-pyridinyl)-1H-pyrazole-5-carboxamide]",Inactive,–,–,–,–,–,–,–,–,–,–,–,no detectable activity
